Results from patent US5605929A, “Methods and compositions for inhibiting 5α-reductase activity” (priority 1995, dated 1997).
Like-named read-outs stand apart in the source and are kept apart here. Values belong to the compound of their own block, whether it stands above or below them.

Tests used:
[1] = target: T1, 5α-Reductase of Rat Liver Microsomes (Rattus norvegicus, UniProt P24008)
T1 sequence (P24008 1-259): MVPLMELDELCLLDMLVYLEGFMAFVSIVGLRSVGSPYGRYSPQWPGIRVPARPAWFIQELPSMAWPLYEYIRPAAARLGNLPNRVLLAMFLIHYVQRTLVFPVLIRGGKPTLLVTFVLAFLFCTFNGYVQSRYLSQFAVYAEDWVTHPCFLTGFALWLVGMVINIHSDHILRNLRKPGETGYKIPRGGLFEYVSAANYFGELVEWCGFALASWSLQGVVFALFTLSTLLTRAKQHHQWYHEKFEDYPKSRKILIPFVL

hamster flank organ = assay: Flank organ, castrated immature male hamsters, topical treatment; format: in vivo, Syrian golden hamster; conditions: for Percent Inhibition / Pigmented macule Right (+T): Table 5, T 0.5 μg + fatty acid 1 mg; for Percent Inhibition / Pigmented macule Right (+T) / Pigmented macule Left: 21 days; for Pigmented macule Right (+T): T alone 49.6 ± 8.3; for Pigmented macule Left: Table 5, fatty acid 1 mg without T; for inhibition of T-induced growth of pigmented macule: hamster, in vivo
Method: One to two weeks after castration, the hair on the lower back of each animal was clipped with an electric hair clipper and then shaved weekly to expose the flank organs. The animals were divided into 5 animals/treatment group. A treatment solution (5 μl) was applied topically to the right flank organ once a day using a Pipetteman and a polypropylene disposable tip. Unless specified the left flank organ was not treated. The treatment solution contained either (a) ethanol alone (vehicle and control), (b) an androgen (T or 5α-DHT), (c) a fatty acid, or (d) a combination of an androgen and a fatty acid. The flank organ was wiped with an alcohol pad to remove residual compound before each treatment. […] The flank organs, both the treated and untreated sides, were evaluated with methods to be described below to determine the effect of these treatments of the growth of the pigmented macules and the sebaceous glands. The body weight of each animal was recorded before and after treatment.
The data are presented as mean ± standard deviation. […]

[2] = target: T1, 5α-Reductase of Rat Liver Microsomes; assay: biochemical
[3] = target: T1, 5α-Reductase of Rat Liver Microsomes; assay: [3H]4-MA binding assay, rat liver microsomes (tea catechins); conditions: for inhibition at 5 µM / inhibition at 10 µM / inhibition at 20 µM / inhibition at 40 µM / inhibition at 200 µM: read-out: % Inhibition of [^3 H]4-MA binding; for inhibitory activity: concentrations up to 200 μM
Method: Microsomes were prepared as described previously (Liang and Liao, 1992) from the liver of adult Sprague-Dawley female rats or Rat-1A cells expressing a specific type of human 5α-reductase. Each study was carried out in duplicate or triplicate which were usually within 10% of each other. Several studies were preformed to assure that the results shown are representative. The data presented was based on the rate of reaction.
[^3 H]4-MA binding assay were described in detail previously (Liang and Liao, 1992; Liang et al., 1983). […] The reaction was started by the addition of 25 μl of microsomes (25 μg protein). After 30-60 min incubation at 0° C., the [^3 H]4-MA bound to microsomes was collected on a Whatman GF/F glass fiber, washed and radioactivity determined (Liang and Liao, 1992).

[4] = read-out: % Inhibition of [^3 H]4-MA binding, Table 1, 10 μM
[5] = read-out: % Inhibition of [^3 H]4-MA binding, Table 1, 40 μM
[6] = read-out: % Inhibition of [^3 H]4-MA binding, Table 1, 200 μM
[7] = read-out: % Inhibition of [^3 H]4-MA binding, Table 2, 5 μM
[8] = read-out: % Inhibition of [^3 H]4-MA binding, Table 2, 10 μM
[9] = read-out: % Inhibition of [^3 H]4-MA binding, Table 2, 40 μM
[10] = read-out: % Inhibition of [^3 H]4-MA binding, Table 2, 200 μM
[11] = read-out: % Inhibition of [^3 H]4-MA binding

- inhibitory activity in [^3 H]4-MA binding assay ([1]; 0.2 mM): somewhat active
Compound: CCCCC[C@H](O)/C=C/[C@H]1C(=O)C[C@H](O)[C@@H]1C/C=C\CCCC(=O)O [prostaglandin D2]

Compound: CC/C=C\C/C=C\C/C=C\CCCCCCCC(=O)OC [linolenic acid methyl ester]
- % Inhibition of [^3 H]4-MA binding ([1]; Table 1, 200 μM, 200 µM): 32%

Compound: CC/C=C\C/C=C\C/C=C\CCCCCCCC(=O)O [α-Linolenic acid, α-linolenic acid]
- Percent Inhibition (hamster flank organ): 44%
- Pigmented macule Right (+T) (hamster flank organ): 27.6 ± 8.2 mm^2
- Pigmented macule Left (hamster flank organ): 4.1 ± 1.2 mm^2
- inhibition of T-induced growth of pigmented macule (hamster flank organ): less active than γ-LA
- inhibition at 10 µM [2, 4]: 19 ± 3%
- inhibition at 40 µM [2, 5]: 27 ± 7%
- inhibition at 200 µM [2, 6]: 84 ± 6%
- inhibition at 5 µM [2, 7]: < 10%
- inhibition at 10 µM [2, 8]: 19%
- inhibition at 40 µM [2, 9]: 27%
- inhibition at 200 µM [2, 10]: 84%

- inhibitory activity in [^3 H]4-MA binding assay [1]: not active
Compound: CCCCC[C@H](O)/C=C/[C@H]1[C@H](O)CC(=O)[C@@H]1C/C=C\CCCC(=O)O [Prostaglandin E2]

Compound: CCCCC/C=C\C/C=C\CCCCCCCC(=O)O [Linoleic acid]
- Percent Inhibition (hamster flank organ): 52%
- Pigmented macule Right (+T) (hamster flank organ): 23.9 ± 5.0 mm^2
- Pigmented macule Left (hamster flank organ): 5.4 ± 1.6 mm^2
- inhibition of T-induced growth of pigmented macule (hamster flank organ): active
- IC50 [2]: 117 µM
- inhibition at 10 µM [2, 4]: < 10%
- inhibition at 40 µM [2, 5]: 12 ± 3%
- inhibition at 200 µM [2, 6]: 86 ± 4%
- inhibition at 10 µM [2, 8]: < 10%
- inhibition at 40 µM [2, 9]: 12%
- inhibition at 200 µM [2, 10]: 86%

Compound: CCCCCCCC/C=C\CCCCCCCC(=O)O [Oleic acid]
- Percent Inhibition (hamster flank organ): 43%
- Pigmented macule Right (+T) (hamster flank organ): 28.1 ± 8.3 mm^2
- Pigmented macule Left (hamster flank organ): 4.7 ± 0.5 mm^2
- inhibition of T-induced growth of pigmented macule (hamster flank organ): active
- IC50 [2]: 128 µM
- inhibition at 10 µM [2, 4]: < 10%
- inhibition at 40 µM [2, 5]: 16 ± 6%
- inhibition at 200 µM [2, 6]: 63 ± 12%
- inhibition at 5 µM [2, 7]: < 10%
- inhibition at 10 µM [2, 8]: < 10%
- inhibition at 40 µM [2, 9]: 16%
- inhibition at 200 µM [2, 10]: 63%

- inhibition at 5 µM ([3]; Table 8, 5 μM): < 10%
- inhibition at 10 µM ([3]; Table 8, 10 μM): < 10%
- inhibition at 20 µM ([3]; Table 8, 20 μM): < 10%
- inhibition at 40 µM ([3]; Table 8, 40 μM): < 10%
- inhibition at 200 µM ([3]; Table 8, 200 μM): < 10%
Compound: Oc1cc(O)c2c(c1)O[C@H](c1ccc(O)c(O)c1)[C@@H](O)C2 [(+)Catechin]

Compound: CCCCC/C=C\C/C=C\C/C=C\CCCCC(=O)OCC(O)CO (centres unmarked) [Monoγ-Linolenin]
- IC50 [1]: 86 µM
- inhibition at 5 µM [2, 7]: < 10%
- inhibition at 10 µM [2, 8]: < 10%
- inhibition at 40 µM [2, 9]: 35%
- inhibition at 200 µM [2, 10]: 87%

Compound: CC1=C(/C=C/C(C)=C/C=C/C(C)=C/C=O)C(C)(C)CCC1 [retinal]
- stimulation or inhibition of [^3 H]4-MA binding ([1]; 40 μM): no stimulation or inhibition
- activation at 200 µM ([2]; 1 h, read-out: stimulation of [^3 H]4-MA binding): 58%

- inhibition at 5 µM [2, 11]: < 10%
- inhibition at 10 µM [2, 11]: < 10%
- inhibition at 40 µM [2, 11]: 25 ± 4%
- inhibition at 200 µM [2, 11]: 43 ± 1%
Compound: CCCC/C=C\CCCCCCCC(=O)O [Myristoleic acid]
- % Inhibition of [^3 H]4-MA binding ([1]; Table 2, 10 μM): NA (less than 10% inhibition were considered not active (NA))

- inhibitory activity in [^3 H]4-MA binding assay ([1]; 0.2 mM): somewhat active
Compound: CCCCC[C@H](O)/C=C/[C@H]1[C@H](O)CC(=O)[C@@H]1CCCCCCC(=O)O [prostaglandin E1]

- inhibition at 5 µM ([3]; Table 8, 5 μM): < 10%
- inhibition at 10 µM ([3]; Table 8, 10 μM): < 10%
- inhibition at 20 µM ([3]; Table 8, 20 μM): < 10%
- inhibition at 40 µM ([3]; Table 8, 40 μM): < 10%
- inhibition at 200 µM ([3]; Table 8, 200 μM): < 10%
Compound: Oc1cc(O)c2c(c1)O[C@H](c1ccc(O)c(O)c1)[C@@H](O)C2 (relative stereo) [(±)Catechin]

- inhibitory activity [3]: inactive
Compound: naphthaflavone [reference compound]

- IC50 [1]: > 200 µM
Compound: heneicosene nitrile

Compound: O=c1c(O)c(-c2ccc(O)c(O)c2)oc2cc(O)cc(O)c12 [quercetin, reference compound]
- inhibitory activity [3]: inactive

- inhibitory activity in [^3 H]4-MA binding assay ([1]; 0.2 mM): somewhat active
Compound: CCCCC[C@H](O)/C=C/C1=C(CCCCCCC(=O)O)C(=O)CC1 [prostaglandin B1]

Compound: CC1=C(/C=C/C(C)=C/C=C/C(C)=C/C(=O)O)C(C)(C)CCC1 [retinoic acid]
- inhibitory activity in [^3 H]4-MA binding assay [1]: inactive

- inhibitory activity in [^3 H]4-MA binding assay [1]: not active
Compound: CCCCC[C@H](O)/C=C/[C@@H]1[C@H]2C/C(=C/CCCC(=O)O)O[C@H]2C[C@H]1O [Prostaglandin 12]

Compound: Phosphatidylcholine
- inhibitory activity in [^3 H]4-MA binding assay [1]: slightly stimulatory

Compound: CCCCC[C@H](O)/C=C/[C@@H]1[C@@H](C/C=C\CCCC(=O)O)[C@@H](O)C[C@H]1O [Prostaglandin F2a]
- inhibitory activity in [^3 H]4-MA binding assay [1]: not active

Compound: O=C(O[C@H]1Cc2c(O)cc(O)cc2O[C@@H]1c1ccc(O)c(O)c1)c1cc(O)c(O)c(O)c1 [CG, (-)Catechin-3-gallate]
- inhibition at 5 µM [3]: 12%
- inhibition at 10 µM [3]: 31%
- inhibition at 20 µM [3]: 53%
- inhibition at 40 µM [3]: 73%
- inhibition at 200 µM [3]: 91%
- IC50 ([3]; type 1 5α-reductase of rat liver microsomes, read-out: IC50): 18 µM

- IC50 [1]: > 200 µM
Compound: di-γ-linolenin
- % Inhibition of [^3 H]4-MA binding ([1]; Table 2, 10 μM): NA (less than 10% inhibition were considered not active (NA))
- % Inhibition of [^3 H]4-MA binding ([1]; Table 2, 40 μM): NA (less than 10% inhibition were considered not active (NA))
- % Inhibition of [^3 H]4-MA binding ([1]; Table 2, 200 μM): NA (less than 10% inhibition were considered not active (NA))

- IC50 [1]: > 200 µM
Compound: methyl docosatetraenoate

- inhibitory activity in [^3 H]4-MA binding assay [1]: inactive
Compound: carotenes

Compound: Oc1cc(O)c2c(c1)O[C@@H](c1cc(O)c(O)c(O)c1)[C@H](O)C2 [(-)Gallocatechin]
- inhibition at 5 µM [3]: < 10%
- inhibition at 10 µM [3]: < 10%
- inhibition at 20 µM [3]: < 10%
- inhibition at 40 µM [3]: < 10%
- inhibition at 200 µM [3]: < 10%

- inhibitory activity in [^3 H]4-MA binding assay ([1]; 0.2 mM): somewhat active
Compound: CCCCC[C@H](O)/C=C/C1=C(C/C=C\CCCC(=O)O)C(=O)CC1 [prostaglandin B2]

- inhibitory activity in [^3 H]4-MA binding assay [1]: slightly stimulatory
Compound: phosphatidyl ethanolamine

- inhibitory activity in [^3 H]4-MA binding assay ([1]; 0.2 mM): somewhat active
Compound: CCCCC[C@H](O)/C=C/[C@H]1C=CC(=O)[C@@H]1C/C=C\CCCC(=O)O [prostaglandin A2]

- inhibitory activity in [^3 H]4-MA binding assay ([1]; 0.2 mM): somewhat active
Compound: CCCCC[C@H](O)/C=C/[C@H]1C=CC(=O)[C@@H]1CCCCCCC(=O)O [prostaglandin A1]

Compound: CCCCC/C=C\C/C=C\C/C=C\C/C=C\CCCC(=O)O [Arachidonic acid]
- Percent Inhibition (hamster flank organ): 28%
- Pigmented macule Right (+T) (hamster flank organ): 35.7 ± 7.9 mm^2
- Pigmented macule Left (hamster flank organ): 4.7 ± 1.6 mm^2
- inhibition of T-induced growth of pigmented macule (hamster flank organ): Weak inhibitions
- IC50 [2]: 65 µM
- inhibition at 10 µM [2, 4]: < 10%
- inhibition at 40 µM [2, 5]: 30 ± 10%
- inhibition at 200 µM [2, 6]: 88 ± 5%
- inhibition at 10 µM [2, 8]: < 10%
- inhibition at 40 µM [2, 9]: 30%
- inhibition at 200 µM [2, 10]: 88%

- inhibitory activity in [^3 H]4-MA binding assay [1]: slightly stimulatory
Compound: CCCCCCCC/C=C\CCCCCCCC(=O)OCC(O)COC(=O)CCCCCCC/C=C\CCCCCCCC [3-diolein]

Compound: Cn1c(=O)c2c(ncn2C)n(C)c1=O [Caffeine, reference compound]
- inhibitory activity [3]: not active

- inhibitory activity in [^3 H]4-MA binding assay ([1]; 0.2 mM): somewhat active
Compound: CCCCC[C@H](O)/C=C/[C@@H]1[C@@H](CCCCCCC(=O)O)[C@@H](O)C[C@H]1O [prostaglandin F1a]

Compound: CCCCCCCCCCCCCCCC(=O)O [Palmitic acid]
- Percent Inhibition (hamster flank organ): 25%
- Pigmented macule Right (+T) (hamster flank organ): 37.2 ± 6.3 mm^2
- Pigmented macule Left (hamster flank organ): 5.1 ± 2.9 mm^2
- inhibition of T-induced growth of pigmented macule (hamster flank organ): Weak inhibitions
- inhibition at 200 µM [2, 6]: < 10%
- inhibition at 200 µM [2, 10]: < 10%

- inhibitory activity in [^3 H]4-MA binding assay [1]: slightly stimulatory
Compound: CC1=C(/C=C/C(C)=C/C=C/C(C)=C/CO)C(C)(C)CCC1 [retinol]
